# Assay results published in PubChem BioAssay AID2060909 (Molecular Pharmacology Branch, DTP, NCI, 2025).
# pIC50: −log10 of the molar value.
# System: 362531-283-R-J2-PDC complex spheroid viability
# Assay: Anticancer human tumor 362531-283-R-J2-PDC patient-derived colon adenocarcinoma cell line growth inhibition [RAS]
# Settings: for pIC50: curve of first compound; for viability, T/C: stronger effect = lower value
# Procedure, shortened: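 Multi-cell-type spheroids: tumor cells plus HUVEC endothelial cells and mesenchymal stem cells. RAS-pathway inhibitors were combined with targeted agents, each dosed in half-log steps down from clinical Cmax, or from 10 microM when Cmax was unknown.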
# [1] = second compound 0.000949 µM, first compound 0.0316 µM
# [2] = second compound 0.000949 µM, first compound 0.1 µM
# [3] = second compound 0.000949 µM, first compound 0.316 µM
# [4] = second compound 0.000949 µM, first compound 1 µM
# [5] = second compound 0.000949 µM, first compound 3.16 µM
# [6] = second compound 0.000949 µM, first compound 10 µM
# [7] = second compound 0.003 µM, first compound 0.0316 µM
# [8] = second compound 0.003 µM, first compound 0.1 µM
# [9] = second compound 0.003 µM, first compound 0.316 µM
# [10] = second compound 0.003 µM, first compound 1 µM
# [11] = second compound 0.003 µM, first compound 3.16 µM
# [12] = second compound 0.003 µM, first compound 10 µM
# [13] = second compound 0.00949 µM, first compound 0.0316 µM
# [14] = second compound 0.00949 µM, first compound 0.1 µM
# [15] = second compound 0.00949 µM, first compound 0.316 µM
# [16] = second compound 0.00949 µM, first compound 1 µM
# [17] = second compound 0.00949 µM, first compound 3.16 µM
# [18] = second compound 0.00949 µM, first compound 10 µM
# [19] = second compound 0.03 µM, first compound 0.0316 µM
# [20] = second compound 0.03 µM, first compound 0.1 µM
# [21] = second compound 0.03 µM, first compound 0.316 µM
# [22] = second compound 0.03 µM, first compound 1 µM
# [23] = second compound 0.03 µM, first compound 3.16 µM
# [24] = second compound 0.03 µM, first compound 10 µM
# [25] = second compound 0.0949 µM, first compound 0.0316 µM
# [26] = second compound 0.0949 µM, first compound 0.1 µM
# [27] = second compound 0.0949 µM, first compound 0.316 µM
# [28] = second compound 0.0949 µM, first compound 1 µM
# [29] = second compound 0.0949 µM, first compound 3.16 µM
# [30] = second compound 0.0949 µM, first compound 10 µM
# [31] = second compound 0.3 µM, first compound 0.0316 µM
# [32] = second compound 0.3 µM, first compound 0.1 µM
# [33] = second compound 0.3 µM, first compound 0.316 µM
# [34] = second compound 0.3 µM, first compound 1 µM
# [35] = second compound 0.3 µM, first compound 3.16 µM
# [36] = second compound 0.3 µM, first compound 10 µM
# 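Note: spheroids exposed to the agents for 7 days before readout.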
# 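Throughout, for viability, T/C: luminescence viability as percent of DMSO vehicle control wells.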
smiles,measurement,setting,value
CC(C)NCC(C(=O)N1CCN(c2ncnc3c2C(C)CC3O)CC1)c1ccc(Cl)cc1 (stereo unspecified) + CCn1c(-c2cc(N3CCN(C)CC3)cnc2C(C)OC)c2c3cc(ccc31)-c1csc(n1)CC(NC(=O)C1CC1C)C(=O)N1CCCC(N1)C(=O)OCC(C)(C)C2,pIC50,second compound 0.000949 µM,< 5.00
same,pIC50,second compound 0.003 µM,< 5.00
same,pIC50,second compound 0.00949 µM,< 5.00
same,pIC50,second compound 0.03 µM,< 5.00
same,pIC50,second compound 0.0949 µM,< 5.00
same,pIC50,second compound 0.3 µM,> 7.50
same,"viability, T/C",[1],103%
same,"viability, T/C",[2],103%
same,"viability, T/C",[3],101%
same,"viability, T/C",[4],99.5%
same,"viability, T/C",[5],92.7%
same,"viability, T/C",[6],89.7%
same,"viability, T/C",[7],95.6%
same,"viability, T/C",[8],109%
same,"viability, T/C",[9],97.8%
same,"viability, T/C",[10],98.7%
same,"viability, T/C",[11],106%
same,"viability, T/C",[12],100%
same,"viability, T/C",[13],103%
same,"viability, T/C",[14],110%
same,"viability, T/C",[15],89.7%
same,"viability, T/C",[16],99%
same,"viability, T/C",[17],93.6%
same,"viability, T/C",[18],93.2%
same,"viability, T/C",[19],99.4%
same,"viability, T/C",[20],83.8%
same,"viability, T/C",[21],84.1%
same,"viability, T/C",[22],87.8%
same,"viability, T/C",[23],92.6%
same,"viability, T/C",[24],85.7%
same,"viability, T/C",[25],81.8%
same,"viability, T/C",[26],101%
same,"viability, T/C",[27],86.1%
same,"viability, T/C",[28],72.3%
same,"viability, T/C",[29],76.4%
same,"viability, T/C",[30],65.4%
same,"viability, T/C",[31],46.8%
same,"viability, T/C",[32],53.9%
same,"viability, T/C",[33],42.6%
same,"viability, T/C",[34],41.6%
same,"viability, T/C",[35],31%
same,"viability, T/C",[36],33.5%
CC(Nc1ccc2c(c1)OCCn1cc(N3C(=O)OCC3C(F)F)nc1-2)C(N)=O (stereo unspecified) + CCn1c(-c2cc(N3CCN(C)CC3)cnc2C(C)OC)c2c3cc(ccc31)-c1csc(n1)CC(NC(=O)C1CC1C)C(=O)N1CCCC(N1)C(=O)OCC(C)(C)C2,pIC50,second compound 0.000949 µM,5.89
same,pIC50,second compound 0.003 µM,5.79
same,pIC50,second compound 0.00949 µM,6.02
same,pIC50,second compound 0.03 µM,6.07
same,pIC50,second compound 0.0949 µM,6.37
same,pIC50,second compound 0.3 µM,> 7.50
same,"viability, T/C",[1],98.7%
same,"viability, T/C",[2],107%
same,"viability, T/C",[3],86.6%
same,"viability, T/C",[4],58%
same,"viability, T/C",[5],26.4%
same,"viability, T/C",[6],27.9%
same,"viability, T/C",[7],103%
same,"viability, T/C",[8],98.8%
same,"viability, T/C",[9],93%
same,"viability, T/C",[10],59.5%
same,"viability, T/C",[11],36.7%
same,"viability, T/C",[12],27.5%
same,"viability, T/C",[13],96.8%
same,"viability, T/C",[14],105%
same,"viability, T/C",[15],64.9%
same,"viability, T/C",[16],56.2%
same,"viability, T/C",[17],32.4%
same,"viability, T/C",[18],32.3%
same,"viability, T/C",[19],97.2%
same,"viability, T/C",[20],89.6%
same,"viability, T/C",[21],70.7%
same,"viability, T/C",[22],45.8%
same,"viability, T/C",[23],38.7%
same,"viability, T/C",[24],34.9%
same,"viability, T/C",[25],88.6%
same,"viability, T/C",[26],73%
same,"viability, T/C",[27],51.9%
same,"viability, T/C",[28],41.7%
same,"viability, T/C",[29],32.5%
same,"viability, T/C",[30],29.4%
same,"viability, T/C",[31],32.6%
same,"viability, T/C",[32],28.3%
same,"viability, T/C",[33],11.2%
same,"viability, T/C",[34],3.11%
same,"viability, T/C",[35],3.38%
same,"viability, T/C",[36],3.53%
O=C(c1ccc(F)c(F)c1Nc1ccc(I)cc1F)N1CC(O)([C@@H]2CCCCN2)C1 + CCn1c(-c2cc(N3CCN(C)CC3)cnc2C(C)OC)c2c3cc(ccc31)-c1csc(n1)CC(NC(=O)C1CC1C)C(=O)N1CCCC(N1)C(=O)OCC(C)(C)C2,pIC50,second compound 0.000949 µM,6.28
same,pIC50,second compound 0.003 µM,6.29
same,pIC50,second compound 0.00949 µM,6.34
same,pIC50,second compound 0.03 µM,6.35
same,pIC50,second compound 0.0949 µM,7.14
same,pIC50,second compound 0.3 µM,> 8.50
same,"viability, T/C","second compound 0.000949 µM, first compound 0.00316 µM",93%
same,"viability, T/C","second compound 0.000949 µM, first compound 0.01 µM",105%
same,"viability, T/C",[1],85.6%
same,"viability, T/C",[2],80.9%
same,"viability, T/C",[3],74.8%
same,"viability, T/C",[4],23.1%
same,"viability, T/C","second compound 0.003 µM, first compound 0.00316 µM",87.8%
same,"viability, T/C","second compound 0.003 µM, first compound 0.01 µM",101%
same,"viability, T/C",[7],92%
same,"viability, T/C",[8],76.4%
same,"viability, T/C",[9],76%
same,"viability, T/C",[10],20.3%
same,"viability, T/C","second compound 0.00949 µM, first compound 0.00316 µM",98.4%
same,"viability, T/C","second compound 0.00949 µM, first compound 0.01 µM",94.7%
same,"viability, T/C",[13],81.4%
same,"viability, T/C",[14],82.6%
same,"viability, T/C",[15],73.6%
same,"viability, T/C",[16],4.71%
same,"viability, T/C","second compound 0.03 µM, first compound 0.00316 µM",87.4%
same,"viability, T/C","second compound 0.03 µM, first compound 0.01 µM",75.7%
same,"viability, T/C",[19],82%
same,"viability, T/C",[20],75.4%
same,"viability, T/C",[21],69.1%
same,"viability, T/C",[22],5.79%
same,"viability, T/C","second compound 0.0949 µM, first compound 0.00316 µM",72.8%
same,"viability, T/C","second compound 0.0949 µM, first compound 0.01 µM",96.2%
same,"viability, T/C",[25],58.1%
same,"viability, T/C",[26],49.3%
same,"viability, T/C",[27],3.89%
same,"viability, T/C",[28],3.06%
same,"viability, T/C","second compound 0.3 µM, first compound 0.00316 µM",28.9%
same,"viability, T/C","second compound 0.3 µM, first compound 0.01 µM",28.4%
same,"viability, T/C",[31],15.1%
same,"viability, T/C",[32],3.3%
same,"viability, T/C",[33],3.48%
same,"viability, T/C",[34],3.15%
